From patent US7592160B2, “Processes for producing isomaltose and isomaltitol and use thereof” (Kabushiki Kaisha Hayashibara Seibutsu Kagaku Kenkyujo, priority 2001, dated 2009)

What was measured:
Set-up in all cases: key: −: no saccharide-transferred product was detected through transfer reaction to acceptor; ±: a saccharide-transferred product was detected in an amount less than one percent through transfer reaction to acceptor; +: a saccharide-transferred product was detected in an amount over one percent but less than 10% through transfer reaction to acceptor; ++: a saccharide-transferred product was detected in an amount over ten percent through transfer reaction to acceptor
[1] = test system: α-isomaltosylglucosaccharide-forming enzyme; test: Transfer-acceptor specificity, enzyme of A19 strain; type: biochemical, Arthrobacter globiformis A19 strain; conditions: acceptor 1.6%, PINE-DEX #100 donor 4%, one unit/g donor, 30° C., pH 8.4, 24 hours
Protocol: (§1) Using various saccharides, it was tested whether the saccharides were used as transferring-acceptors for α-isomaltosylglucosaccharide-forming enzyme. A solution of D-glucose, D-xylose, L-xylose, D-galactose, D-fructose, D-mannose, D-arabinose, D-fucose, D-psicose, L-sorbose, L-rhamnose, methyl-α-glucopyranoside, methyl-β-glucopyranoside, N-acetyl-glucosamine, sorbitol, α,α-trehalose, isomaltose, isomaltotriose, cellobiose, gentibiose, glycerol, maltitol, lactose, sucrose, α-cyclodextrin, β-cyclodextrin, γ-cyclodextrin, or L-ascorbic acid was prepared. To each solution with a saccharide concentration of 1.6% was added “PINE-DEX #100”, a partial starch hydrolyzate, as a saccharide donor, to give a concentration of 4%, and admixed with one unit/g saccharide donor, d.s.b., of either of purified specimens of α-isomaltosylglucosaccharide-forming enzyme from Bacillus globisporus C9 strain obtained by the method in Experiment 4-2, Bacillus globisporus C11 strain obtained by the method in Experiment 7-2, Bacillus globisporus N75 strain obtained by the method in Experiment 11-2, or Arthrobacter globiformis A19 strain obtained by the method in Experiment 15-2, and incubated at 30° C. and pH 6.0 for 24 hours, except that pH 8.4 was used for the enzyme from Arthrobacter globiformis A19 strain. The reaction mixtures of the post-enzymatic reactions were analyzed on gas chromatography (abbreviated as “GLC” hereinafter) for monosaccharides and disaccharides as acceptors, and on HPLC for trisaccharides as acceptors to confirm whether these saccharides could be used as the transfer acceptors of the above enzymes. In the case of performing GLC, the following apparatuses and conditions were used: GLC apparatus, “GC-16A” commercialized by Shimadzu Corporation, Tokyo, Japan; column, a stainless-steel column, 3 mm in diameter and 2 m in length, packed with 2% “SILICONE OV-17/CHROMOSOLV W”, commercialized by GL Sciences Inc., Tokyo, Japan; carrier gas, nitrogen gas at a flow rate of 40 ml/min under temperature conditions of increasing from 160° C. to 320° C. at an increasing temperature rate of 7.5° C./min; and detection, a hydrogen flame ionization detector. In the case of performing HPLC analysis, the following apparatuses and conditions were used: HPLC apparatus, “CCPD” commercialized by Tosoh Corporation, Tokyo, Japan; column, “ODS-AQ-303” commercialized by YMC Co., Ltd., Tokyo, Japan; eluent, water at a flow rate of 0.5 ml/min; and detection, a differential refractometer.

[2] = test system: α-isomaltosylglucosaccharide-forming enzyme; test: Transfer-acceptor specificity, enzyme of C9 strain; type: biochemical, Bacillus globisporus C9 strain; conditions: acceptor 1.6%, PINE-DEX #100 donor 4%, one unit/g donor, 30° C., pH 6.0, 24 hours
Protocol: as §1

[3] = test system: α-isomaltosylglucosaccharide-forming enzyme; test: Transfer-acceptor specificity, enzyme of C11 strain; type: biochemical, Bacillus globisporus C11 strain; conditions: acceptor 1.6%, PINE-DEX #100 donor 4%, one unit/g donor, 30° C., pH 6.0, 24 hours
Protocol: as §1

[4] = test system: α-isomaltosylglucosaccharide-forming enzyme; test: Transfer-acceptor specificity, enzyme of N75 strain; type: biochemical, Bacillus globisporus N75 strain; conditions: acceptor 1.6%, PINE-DEX #100 donor 4%, one unit/g donor, 30° C., pH 6.0, 24 hours
Protocol: as §1

SMILES	Product of transferring reaction, Enzyme of A19 strain [1]	Product of transferring reaction, Enzyme of C9 strain [2]	Product of transferring reaction, Enzyme of C11 strain [3]	Product of transferring reaction, Enzyme of N75 strain [4]
C[C@H](O)[C@H](O)[C@@H](O)[C@@H](O)C=O [L-Rhamnose, L-rhamnose]	−	−	−	−
O=C(CO)[C@@H](O)[C@H](O)[C@@H](O)CO [L-Sorbose, L-sorbose]	+ (a saccharide-transferred product was detected in an amount over one percent but less than 10% through transfer reaction to acceptor)	+ (a saccharide-transferred product was detected in an amount over one percent but less than 10% through transfer reaction to acceptor)	+ (a saccharide-transferred product was detected in an amount over one percent but less than 10% through transfer reaction to acceptor)	+ (a saccharide-transferred product was detected in an amount over one percent but less than 10% through transfer reaction to acceptor)
O=C[C@@H](O)[C@H](O)[C@@H](O)CO [L-Xylose, L-xylose]	+ (a saccharide-transferred product was detected in an amount over one percent but less than 10% through transfer reaction to acceptor)	++ (a saccharide-transferred product was detected in an amount over ten percent through transfer reaction to acceptor)	++ (a saccharide-transferred product was detected in an amount over ten percent through transfer reaction to acceptor)	++ (a saccharide-transferred product was detected in an amount over ten percent through transfer reaction to acceptor)
CO[C@H]1O[C@H](CO)[C@@H](O)[C@H](O)[C@H]1O [Methyl-α-glucopyranoside, methyl-α-glucopyranoside]	++ (a saccharide-transferred product was detected in an amount over ten percent through transfer reaction to acceptor)	++ (a saccharide-transferred product was detected in an amount over ten percent through transfer reaction to acceptor)	++ (a saccharide-transferred product was detected in an amount over ten percent through transfer reaction to acceptor)	++ (a saccharide-transferred product was detected in an amount over ten percent through transfer reaction to acceptor)
CO[C@@H]1O[C@H](CO)[C@@H](O)[C@H](O)[C@H]1O [Methyl-β-glucopyranoside, methyl-β-glucopyranoside]	++ (a saccharide-transferred product was detected in an amount over ten percent through transfer reaction to acceptor)	++ (a saccharide-transferred product was detected in an amount over ten percent through transfer reaction to acceptor)	++ (a saccharide-transferred product was detected in an amount over ten percent through transfer reaction to acceptor)	++ (a saccharide-transferred product was detected in an amount over ten percent through transfer reaction to acceptor)
CC(=O)N[C@H]1C(O)O[C@H](CO)[C@@H](O)[C@@H]1O (stereo partly drawn) [N-Acetylglucosamine, N-acetyl-glucosamine]	−	+ (a saccharide-transferred product was detected in an amount over one percent but less than 10% through transfer reaction to acceptor)	+ (a saccharide-transferred product was detected in an amount over one percent but less than 10% through transfer reaction to acceptor)	+ (a saccharide-transferred product was detected in an amount over one percent but less than 10% through transfer reaction to acceptor)
